# Assay results: US20250382588A1, “CHIMERIC AAV AND USES THEREOF” (priority 2023, published 2025)
# Legend:
# Type in all cases: in vivo
# [1] = system: hM3Dq or rM3Ds; test: Locomotion test after nigral DREADD AAV and CNO in macaques
# Description: To guide the virus injection in SNr, a guide grid of multiple holes spaced by 1 mm was installed on each subject vertically above the SN. By filling vitamin E in these holes, the accurate coordinates for injection could be obtained from the T1-weighted MRI images (3T Tim Trio scanner, Siemens). Virus injections were performed in nine sites covering the whole SNr, and a total volume of 27 μL virus was unilaterally injected in the right SNr at the speed of 300 nL/min.
# To intracranially administrate drug and/or perform electrophysiological recording, a recording chamber covering from anterior caudate to posterior GPi was fixed on the skull with 6 titanium screws and dental cement. Each subject was allowed to recover from the surgery for at least 6 weeks prior to further studies.
# The locomotion tests for monkeys were conducted in a custom-made observation cage (100 cm×100 cm×100 cm). The top and front of the cage were made of toughened glass in order to gain a clear view for behavioral recording. Monkeys were habituated to the observation cage by placing them inside for 30 minutes on three separate days.
# For monkeys injected with AAV8R12-G88P3-HA-hM3Dq, CNO was intracranially infused into the dorsomedial caudate through the recording chamber. To infuse while the animal was awake, the monkey was trained to sit in a primate chair specially designed with its head fixed to the primate chair by a mask made of thermoplastic materials. Injections were conducted through a 33-Gauge needle connected to a 250 μL syringe via a polyethylene pipe (Hamilton, Neuros). […] The needle was held for 5 minutes for drug diffusion before retraction. […] Videos capturing the subjects' behavior were recorded for at least 90 minutes. Animal behaviors from 30-90 minutes after saline/CNO infusion were further analyzed and quantified.
# For rotation analysis, only movements that occurred lower than 30 cm on the z-axis were counted. To determine the direction of the rotation, we first computed the center for the rotation data in the x-y plane as (x0, y0) by averaging all data points, and then we computed the angle relative to (x0, y0) for each time point by the following formula:
# where θi represents the rotating angle at time i, and (xi, yi) represents the x-y coordinate at time i. We then calculated the change of rotating angle as Δθi=θi−θi-1. For right nigral injections, when Δθ<0, the direction of the rotation was anticlockwise and was labeled as a contraversive rotation. When Δθ>0, the direction of the rotation was clockwise and was labeled as an ipsiversive rotation. The raw data were analyzed and plotted through a custom R package. Code is available on Github (github.com/chenyef/PD_ana/blob/main/Behavior_ana.txt).
# [2] = molecular target: T1, hM3Dq (Homo sapiens, UniProt P20309, A239G/Y149C); test: Electrophysiological recording in caudate after CNO infusion, AAV8R12-G88P3-HA-hM3Dq macaques
# T1 construct: HA (N); expressed in transfected cells; host or cells: neurons (striatal D1-MSNs, some SNr neurons) of C57BL/6J mice or cynomolgus macaques transduced by nigral AAV8R12-G88P3-HA-hM3Dq
# T1 sequence (P20309 whole entry Y149C/A239G, the tested form may be a part): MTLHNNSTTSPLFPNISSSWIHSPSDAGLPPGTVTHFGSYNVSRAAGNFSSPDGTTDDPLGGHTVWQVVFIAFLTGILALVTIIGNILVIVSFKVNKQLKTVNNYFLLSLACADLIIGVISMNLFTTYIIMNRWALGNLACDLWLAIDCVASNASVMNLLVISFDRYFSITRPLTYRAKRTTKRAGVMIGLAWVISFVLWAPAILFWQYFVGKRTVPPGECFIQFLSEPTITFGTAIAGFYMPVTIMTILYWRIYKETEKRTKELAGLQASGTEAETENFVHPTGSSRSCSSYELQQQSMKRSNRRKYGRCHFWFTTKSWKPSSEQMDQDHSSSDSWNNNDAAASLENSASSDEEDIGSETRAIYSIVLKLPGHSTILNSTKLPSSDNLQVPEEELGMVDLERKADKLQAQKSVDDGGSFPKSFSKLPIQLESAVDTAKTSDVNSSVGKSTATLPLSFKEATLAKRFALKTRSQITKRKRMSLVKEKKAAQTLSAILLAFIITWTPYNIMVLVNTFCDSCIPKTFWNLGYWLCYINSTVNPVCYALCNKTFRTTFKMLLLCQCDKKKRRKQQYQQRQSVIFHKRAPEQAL
# Description: (§1) Electrophysiological recording was performed through a recording chamber while the monkey was anesthetized. Neural responses were recorded by a 16-channel linear probe (Plexon Inc, Uprobe) driven by a mechanical microdrive (Alpha Omega, FlexMT). Signals were passed through a head stage (Plexon Inc, HST/16V-G20 LN) and then split and filtered between 300 Hz and 5 kHz to identify spiking activity with an amplifier system (Plexon Inc, OmniPlex). Detected spikes were then sorted by commercially available software (Plexon Inc, Offline Sorter) for further analysis. To quantify the effect of CNO/DCZ injection, neural activity was recorded for 60 minutes following CNO/DCZ injection. The response time-course for each channel was obtained by counting the spikes within every 10-minute window and then normalizing to the maximal.
# To determine the effect of CNO/DCZ injection on the direction of signal change, we performed Pearson correlation between neural responses and time using the ‘corr’ function in Matlab, which generates the correlation coefficient ‘r’ and significant level ‘p’. A neuron was considered to have “Increased” activity when r>0 and p<[…]; and considered to have “Decreased” activity when r<0 and p<0.05. Otherwise, neurons were considered to be “Unchanged” in their neural activities. The responses of all increased neurons were then averaged after being normalized by the maximal response (Crowe et al., 2014; Dai and Wang, 2018; Hirokawa et al., 2019) following CNO/DCZ injection, and then plotted as a function of time to generate the normalized population response.
# [3] = molecular target: T2, rM3Ds (Rattus norvegicus, UniProt P08483, A177S/A238G/A489L/DEL261-437/DEL441-478/E258S/I253V/I483M/INS256[…]/K178L/K182A/K255R/K484R/K486H/L173F/L482A/M480V/R171S/R176Q/R179M/S481M/T174R/T181R/T257A/Y148C); test: Electrophysiological recording in caudate/putamen after intramuscular CNO, rM3Ds macaques
# T2 sequence (P08483 with tags, fused parts or gaps Y148C/R171S/L173F/T174R/R176Q/A177S/K178L/R179M/T181R/K182A/A238G/I253V/K255R/INS256[…]/T257A/E258S/DEL261-437/DEL441-478/M480V/S481M/L482A/I483M/K484R/K486H/A489L): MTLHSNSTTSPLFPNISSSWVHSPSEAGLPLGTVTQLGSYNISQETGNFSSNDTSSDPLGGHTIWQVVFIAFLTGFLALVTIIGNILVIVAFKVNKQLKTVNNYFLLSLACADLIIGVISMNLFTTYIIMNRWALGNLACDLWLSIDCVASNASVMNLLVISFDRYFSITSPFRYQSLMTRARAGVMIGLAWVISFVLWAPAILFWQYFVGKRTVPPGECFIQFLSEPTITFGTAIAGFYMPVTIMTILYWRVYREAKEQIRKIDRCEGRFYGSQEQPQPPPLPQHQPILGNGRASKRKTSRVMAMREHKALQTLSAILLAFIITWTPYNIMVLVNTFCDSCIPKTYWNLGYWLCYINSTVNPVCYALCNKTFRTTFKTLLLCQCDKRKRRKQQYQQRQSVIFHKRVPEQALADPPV
# Description: as §1
# To determine the effect of CNO/DCZ injection on the direction of signal change, we performed Pearson correlation between neural responses and time using the ‘corr’ function in Matlab, which generates the correlation coefficient ‘r’ and significant level ‘p’. A neuron was considered to have “Increased” activity when r>0 and p<[…]; and considered to have “Decreased” activity when r<0 and p<0.05. Otherwise, neurons were considered to be “Unchanged” in their neural activities. The responses of all increased neurons were then averaged after being normalized by the maximal response (Crowe et al., 2014; Dai and Wang, 2018; Hirokawa et al., 2019) following CNO/DCZ injection, and then plotted as a function of time to generate the normalized population response. […]
# [4] = intracranial or systemic CNO, n=4
# [5] = monkey CM045, 34 cells in caudate
# [6] = 38 total cells in the caudate/putamen
# [7] = monkey CM048, 38 cells in caudate
structure (smiles),measurement,setting,value
"C[N+]1([O-])CCN(C2=Nc3cc(Cl)ccc3Nc3ccccc32)CC1 [CNO, clozapine N-oxide]",muscle tone of the contralateral biceps brachii (electromyogram),[1]; following CNO infusions,an increase in the muscle tone
same,immobile time (FIG. 10E),[1]; [4],89.13±8.379
same,speed during contraversive rotations (FIG. 10G),[1]; [4],46.98±6.669
same,total distance (FIG. 10F),[1]; [4],97.37±19.41
same,velocity of ipsiversive rotations (FIG. 10H),[1]; [4],41.37±6.566
same,cells activated (FIG. 12L),[2]; 34 total cells in the caudate,67.6%
same,cells inactivated (FIG. 12L),[2]; 34 total cells in the caudate,2.9%
same,cells unchanged (FIG. 12L),[2]; 34 total cells in the caudate,29.4%
same,cells activated (FIG. 12C),[2]; [5],70.6%
same,cells inactivated (FIG. 12C),[2]; [5],8.8%
same,cells unchanged (FIG. 12C),[2]; [5],20.6%
same,cells activated (FIG. 12N),[3]; [6],50%
same,cells inactivated (FIG. 12N),[3]; [6],13.2%
same,cells unchanged (FIG. 12N),[3]; [6],36.8%
same,neuronal activity in retrogradely labeled D1-MSNs (opto-tagging),"[3]; anesthetized macaques, AAV8R12-G88P7-HA-rM3Ds-2A-Cre",effectively induced an increase of neuronal activity
same,cells activated (FIG. 12F),[3]; [7],65.8%
same,cells inactivated (FIG. 12F),[3]; [7],7.9%
same,cells unchanged (FIG. 12F),[3]; [7],26.3%
